# In US20060275356A1, “Pharmaceutical compositions for treating or preventing coronary artery disease” (priority 2005, published 2006):
# Read-outs that look alike come from different tables or passages of the source.
# Legend:
# [1] = tested on: plasma apoA-I levels; assay: Plasma apoA-I levels after two weeks of PI plus absorption enhancer (western immunoblotting); type: in vivo, Sprague Dawley rats; details: 60 mg/kg PI combined with the absorption enhancer (dose per Table 1), rats
# Procedure: Individual absorption enhancers were also incorporated into the 2 g bolus dose (Table 1). […] All animals were maintained on this regime for two weeks, at which time animals were euthanized and blood samples collected by cardiac puncture. Blood samples were collected into EDTA coated tubes, placed on ice, followed by centrifugation at 1500×g for 15 min at 4° C. to separate plasma. Plasma samples were stored at −20° C. until analysis of apoA-I could be performed. Plasma apoA-I levels were determined by western immunoblotting.
# [2] = two pilot studies, children aged 4-19 years; cited from earlier work
# [3] = tested on: HDL-C cholesterol; details: 5.5% by weight of rat chow, approximately 4 g/Kg body weight; cited from earlier work
# [4] = tested on: HepG2 cells; details: cited from earlier work
# [5] = tested on: plasma HDL-C and apoA-I; assay: Oral PI in conventional formulations: increase in plasma HDL-C and apoA-I; type: in vivo; details: oral PI about 5.6 g/day
# [6] = Effect of bile acids on absorption and transport of 3H-PI to the liver; type: in vivo, Sprague Dawley rats; details: 120 mg/kg 3H-PI by gavage with 50 mg/kg bile acid; liver 4 hours post-gavage
# Procedure: Pharmacokinetic studies were performed to determine if specific bile acids increase the absorption and transport of phosphatidylinositol (PI) to the liver. Sprague Dawley rats (300-350 g) were fasted overnight, followed by administration of 120 mg/kg ^3H-PI by gavage. 50 mg/kg of the bile acids deoxycholate or glycocholate were also incorporated into the gavage. Animals were euthanized after 4 hours post-gavage at which time liver samples were harvested. PI was extracted from the liver samples using the acidic Bligh and Dyer extraction method (Bligh, E. G.; Dyer, W. J. Can. J. Biochem. vol. 37: 911-917, 1959 and Honeyman, T. W. et al., Biochem J. vol. 212: 489-498, 1983). Radioactivity present in the organic phase was measured to determine the amount of PI that was transported to the liver.
molecule,measurement,setting,value
CCCCCCCCCCCC(=O)[O-].[Na+] [sodium laurate],increase in plasma apoA-I relative to PI alone,[1],3.7 fold
Bromelain,increase in plasma apoA-I relative to PI alone,[1],5.4 fold
phosphatidylserine [PS],"children with improved attention, behavior, learning performance and ameliorated negative mood",[2],15 out of 20
Phosphatidic acid [Phosphatidic acid (PA)],increase of HDL-C cholesterol,[3],about 2 fold
"CC(C)c1c(C(=O)Nc2ccccc2)c(-c2ccccc2)c(-c2ccc(F)cc2)n1CC[C@@H](O)C[C@@H](O)CC(=O)O [atorvastatin, reference compound]",inhibition of cholesterol synthesis,[4]; concentrations between 0.01 to 10 μM,45-65%
C[C@H](CCC(=O)O)[C@H]1CC[C@H]2[C@@H]3[C@H](O)C[C@@H]4C[C@H](O)CC[C@]4(C)[C@H]3CC[C@]12C [chenodeoxycholate],increase in plasma apoA-I relative to PI alone,[1],2 fold
C[C@H](CCC(=O)NCC(=O)O)[C@H]1CC[C@H]2[C@@H]3[C@H](O)C[C@@H]4C[C@H](O)CC[C@]4(C)[C@H]3C[C@H](O)[C@]12C [glycocholate],increase in plasma apoA-I relative to PI alone,[1],6.6 fold
CCCCCCCCCCCCOS(=O)(=O)[O-].[Na+] [sodium lauryl sulfate],increase in plasma apoA-I relative to PI alone,[1],7.7 fold
phosphatidylinositol [PI],inhibition of cholesterol synthesis,[4]; concentration of 11.7 μM,50%
same,increase in plasma HDL-C,[5],~20%
same,increase in plasma apoA-I,[5],~10%
deoxycholate,increase of transport of PI to the liver,[6],20%
same,increase in plasma apoA-I relative to PI alone,[1],2 fold
